Measured values as given in article PMC11494662, “Insight into the Course of the Ferrier Rearrangement Used to Obtain Untypical Diosgenyl Saponins” (The Journal of Organic Chemistry, 2024).
Converted amounts (≈) assume the structure as drawn.

What was measured:
[1] = test system: prostate cancer cells (PC3 line); assay: MTT cytotoxicity assay, PC3; assay type: cell-based, human; conditions: for IC50: Homo sapiens, PC-3, PC3 cells, 48 h treatment, MTT; for SI PC3 (selectivity index): ratio of IC50 for normal cell line (HaCaT) to IC50 for PC3, 48 h
Description: (§1) The MTT assay was performed to specify the cytotoxicity of 7–12 and 13–18 against prostate cancer cells (PC3 line), breast cancer cells (MCF7 line), and human keratinocytes (HaCaT line). The mentioned cell lines were assayed by exposing them for 48 h to a medium containing the studied compounds over a wide range of concentrations. The IC50 values (dose of the compound which caused a 50% reduction of cell viability) and the selectivity indexes (SI), which show the ratio of IC50 for normal cell line to IC50 for cancer cell line, are shown in Table S2. An MTT assay was performed to specify the cytotoxicity of the studied compounds against breast cancer cells (MCF-7 line, ATCC), prostate cancer cells (PC3 line, ATCC) and human keratinocytes (HaCaT line, CLS). The MCF-7 cell line was cultured in an RPMI 1640 medium (Gibco, Thermo Fisher Scientific), the PC3 cell line in a F-12K medium (Gibco, Thermo Fisher Scientific), and the HaCaT cell line in a high-glucose DMEM (Gibco, Thermo Fisher Scientific). Each medium was supplemented with 10% fetal bovine serum (Gibco, Thermo Fisher Scientific) and antibiotics (penicillin and streptomycin, Gibco, Thermo Fisher Scientific). Cells were seeded at a density of 4000 per well into 96-well plates and incubated at 37 °C in a 5% CO2 atmosphere. The cells were treated with studied compounds in a concentration range of 0.1–100 μg/mL or with a vehicle (1% DMSO) as a control and subsequently incubated for 48 h. Thereafter, the MTT salt solution (3-(4,5-dimethylthiazol-2-yl)-2,5-diphenyltetrazolium bromide, VWR) was added at a concentration of 4 mg/mL (25 μL per well), and the obtained product (formazan) after 3 h of incubation was dissolved in DMSO. An EnSpire microplate reader (PerkinElmer) was used to measure absorbance at 570 nm (the reference wavelength was 660 nm). The viability of the control cells was taken as 100%. Three independent experiments were conducted in triplicate. Statistical analysis of the results and estimation of IC50 values were performed using GraphPad Prism 7 software.

S. aureus ATCC 6538 = assay: MIC, broth dilution method; assay type: cell-based; conditions: Staphylococcus aureus, ATCC6538; MHB II, 18 h, 37 °C; read-out: Minimum inhibitory concentration S. aureus ATCC 6538
Description: (§2) MIC was determined with the dilution method in Mueller–Hinton II broth (MHB II) on 96-well polystyrene plates. The reference strains (Polish Academy of Sciences, Wroclaw, Poland) of Gram-positive bacteria (Enterococcus faecium ATCC 29,212, S. aureus ATCC 6538, S. aureus ATCC 43,300, S. aureus ATCC 12,598, S. aureus ATCC 25,923, S. aureus, ATCC 33,591, Staphylococcus epidermidis ATCC 14,990) and Gram-negative bacteria (Acinetobacter baumanii ATCC 23,506, Escherichia coli ATCC 25,922, Klebsiella pneumoniae ATCC 700,603, Pseudomonas aeruginosa ATCC 9027) were suspended in MHB II medium to initial inoculum of 10^5 cfu/mL. The microbes were exposed to graded concentrations of tested compounds (range 0.5–256 mg/L) for 18 h at 37 °C under aerobic conditions. The compounds were dissolved in DMSO and then diluted with PBS. […] MIC was taken as the lowest concentration at which no microbial growth was observed. The experiments were performed in triplicate.

E. faecium ATCC 29212 = assay: MIC, broth dilution method; assay type: cell-based; conditions: Enterococcus faecium, ATCC29212; MHB II, 18 h, 37 °C; read-out: Minimum inhibitory concentration E. faecium ATCC 29212
Description: as §2

[2] = test system: S. epidermidis ATCC 14990; assay: MIC, broth dilution method; assay type: cell-based; conditions: Staphylococcus epidermidis, ATCC14990; MHB II, 18 h, 37 °C; read-out: Minimum inhibitory concentration S. epidermidis ATCC 14990
Description: as §2

S. aureus ATCC 25923 = assay: MIC, broth dilution method; assay type: cell-based; conditions: Staphylococcus aureus, ATCC25923; MHB II, 18 h, 37 °C; read-out: Minimum inhibitory concentration S. aureus ATCC 25923
Description: as §2

S. aureus ATCC 43300 = assay: MIC, broth dilution method; assay type: cell-based; conditions: Staphylococcus aureus, ATCC43300; MHB II, 18 h, 37 °C; read-out: Minimum inhibitory concentration S. aureus ATCC 43300
Description: as §2

S. aureus ATCC 12598 = assay: MIC, broth dilution method; assay type: cell-based; conditions: Staphylococcus aureus, ATCC12598; MHB II, 18 h, 37 °C; read-out: Minimum inhibitory concentration S. aureus ATCC 12598
Description: as §2

S. aureus ATCC 33591 = assay: MIC, broth dilution method; assay type: cell-based; conditions: Staphylococcus aureus, ATCC33591; MHB II, 18 h, 37 °C; read-out: Minimum inhibitory concentration S. aureus ATCC 33591
Description: as §2

[3] = test system: Staphylococcus aureus strains tested, including methicilin-resistant S. aureus; assay: Antistaphylococcal activity, summary over the strains tested; assay type: cell-based; conditions: range over the S. aureus strains tested
Description: as §2

[4] = test system: breast cancer cells (MCF-7 line); assay: MTT cytotoxicity assay, MCF7; assay type: cell-based, human; conditions: for IC50: Homo sapiens, MCF7 cells, 48 h treatment, MTT; for SI MCF7 (selectivity index): ratio of IC50 for normal cell line (HaCaT) to IC50 for MCF7, 48 h
Description: as §1

[5] = test system: human keratinocytes (HaCaT line); assay: MTT cytotoxicity assay, HaCaT; assay type: cell-based; conditions: Homo sapiens, HaCaT normal cells, 48 h treatment
Description: as §1

Compound	IC50 [1] [µM]	SI PC3 (selectivity index) [1]	MIC (S. aureus ATCC 6538) [µg/mL]	MIC (E. faecium ATCC 29212) [µg/mL]	MIC [2] [µg/mL]	MIC (S. aureus ATCC 25923) [µg/mL]	MIC (S. aureus ATCC 43300) [µg/mL]	MIC (S. aureus ATCC 12598) [µg/mL]	MIC (S. aureus ATCC 33591) [µg/mL]	concentrations at which antistaphylococcal activity was achieved [3] [mg/L]	IC50 [4] [µM]	SI MCF7 (selectivity index) [4]	IC50 [5] [µM]
C[C@@H]1CC[C@@]2(OC1)O[C@H]1C[C@H]3[C@@H]4CC=C5C[C@@H](O[C@@H]6CC[C@H](O)CO6)CC[C@]5(C)[C@H]4CC[C@]3(C)[C@H]1[C@@H]2C [17α]	73.2	0.66	128 (≈ 249 µM)	> 256	> 256	256 (≈ 497 µM)	128 (≈ 249 µM)	256 (≈ 497 µM)	256 (≈ 497 µM)	128 to 256	68.2	0.71	48.3
C[C@@H]1CC[C@@]2(OC1)O[C@H]1C[C@H]3[C@@H]4CC=C5C[C@@H](O[C@@H]6CC[C@@H](O)[C@@H](CO)O6)CC[C@]5(C)[C@H]4CC[C@]3(C)[C@H]1[C@@H]2C [14α, Diosgenyl 2,3-Dideoxy-α-D-threo-hexopyranoside]	41.1	1.29	64 (≈ 117 µM)	> 256	> 256	64 (≈ 117 µM)	128 (≈ 235 µM)	256 (≈ 470 µM)	256 (≈ 470 µM)	64 to 256	25	2.13	53.2
C[C@@H]1CC[C@@]2(OC1)O[C@H]1C[C@H]3[C@@H]4CC=C5C[C@@H](O[C@H]6CC[C@H](O)[C@H](C)O6)CC[C@]5(C)[C@H]4CC[C@]3(C)[C@H]1[C@@H]2C [16α, Diosgenyl 2,3,6-Trideoxy-α-L-threo-hexopyranoside]	29.9	1.02	> 256	> 256	> 256	> 256	> 256	> 256	> 256		36.6	0.84	30.6
